According to PubChem BioAssay (NCI):
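Values below derive from 48-hour exposures of cells grown in 96-well plates, with endpoints linearly interpolated between the two concentrations bracketing the appropriate inhibition level. Abbreviation: GI50, concentration required for 50% inhibition of growth. Definition used: TGI = concentration required for complete inhibition of growth.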

Assays:
Assay in all cases: NCI-60 cell line screen, 48 h
SNB-75 CNS = tested on: SNB-75 CNS
TK-10 renal = tested on: TK-10 renal
ACHN renal = tested on: ACHN renal
NCI/ADR-RES ovarian = tested on: NCI/ADR-RES ovarian
UACC-62 melanoma = tested on: UACC-62 melanoma
IGROV1 ovarian = tested on: IGROV1 ovarian
SF-268 CNS = tested on: SF-268 CNS
MALME-3M melanoma = tested on: MALME-3M melanoma
UO-31 renal = tested on: UO-31 renal
MDA-MB-435 = tested on: MDA-MB-435
786-0 renal = tested on: 786-0 renal
MDA-N = tested on: MDA-N

Structure (SMILES) | TGI (SNB-75 CNS) [µM] | TGI (TK-10 renal) [µM] | TGI (ACHN renal) [µM] | TGI (NCI/ADR-RES ovarian) [µM] | TGI (UACC-62 melanoma) [µM] | TGI (IGROV1 ovarian) [µM] | TGI (SF-268 CNS) [µM] | TGI (MALME-3M melanoma) [µM] | TGI (UO-31 renal) [µM] | TGI (MDA-MB-435) [µM] | TGI (786-0 renal) [µM] | TGI (MDA-N) [µM] | GI50 (SNB-75 CNS) [µM] | GI50 (NCI/ADR-RES ovarian) [µM] | GI50 (UACC-62 melanoma) [µM] | GI50 (IGROV1 ovarian) [µM] | GI50 (SF-268 CNS) [µM] | GI50 (MALME-3M melanoma) [µM] | GI50 (UO-31 renal) [µM]
COc1cc2c(cc1OC)C(=O)/C(=C/c1cc(C)c(O)c(C)c1)C2 | > 100 | > 100 | > 100 | > 100 | > 100 | > 100 | > 100 | 40.1 | > 100 |  |  |  |  |  |  |  |  |  | 
CN1CCN(C(=S)N(C)C(=O)c2ccc(Cl)cc2)CC1 | > 100 | > 100 | > 100 |  | > 100 | > 100 | > 100 | > 100 | > 100 | > 100 | > 100 | > 100 |  |  |  |  |  |  | 
COC1C=CC23c4cc5c(cc4C(O)OC2CN(C)C3C1)OCO5 (configuration not stated) |  |  | 10.1 |  | 58.8 | 22.3 | 26.9 | 6.49 | 9.3 |  | 11 |  |  |  |  |  |  |  | 
CC(C)=CC1C(C(=O)O)C1(C)C (configuration not stated) | > 750 |  |  | > 750 | > 750 | > 750 | > 750 | > 750 | > 750 |  |  |  |  |  |  |  |  |  | 
CC(=O)CC(=O)c1cc2c(=O)oc(C)cc2oc1=O | > 37.5 | > 37.5 | > 37.5 | > 37.5 | > 37.5 | > 37.5 | > 37.5 | > 37.5 | > 37.5 |  | > 37.5 | > 37.5 |  |  |  |  |  |  | 
CCOc1ccc(N=C/C=C(\Cl)c2ccc3ccccc3c2)cc1 | 33.4 | 35.7 | 32.7 | 31.8 | 31 | 41.5 | 37.4 | 30.6 | 29.9 | 43.9 | 26.7 |  |  |  |  |  |  |  | 
Cc1oc2nc(N(C)C)n3nnnc3c2c1C | > 100 | > 100 | > 100 | > 100 | > 100 | > 100 | > 100 |  | > 100 | > 100 | > 100 |  |  |  |  |  |  |  | 
O=C(OCc1ccccc1)OOC(=O)OCc1ccccc1 | > 100 |  | > 100 |  | > 100 | > 100 | > 100 | > 100 | > 100 |  |  |  |  |  |  |  |  |  | 
c1ccc(N=c2snc(-c3ccccc3)s2)cc1 | > 100 | > 100 | > 100 |  | > 100 | > 100 | > 100 | > 100 | > 100 |  | > 100 |  |  |  |  |  |  |  | 
COc1cc([C@@H]2c3cc4c(cc3C[C@H]3COC(=O)[C@@H]32)OCO4)cc(OC)c1OC | > 13.3 |  |  | 0.202 | > 50 | > 50 | > 50 | > 50 | 13.2 |  |  | 0.00582 | 0.0042 | 0.00917 | 0.0028 | 0.00618 | 0.00581 | 0.00681 | 0.00501
COc1ccc(CNc2nc3ccc(C(F)(F)F)cc3nc2-c2ccccc2)cc1OC | > 100 | > 100 | > 100 |  | > 100 |  | > 100 | > 100 | > 100 |  |  |  |  |  |  |  |  |  | 
COc1cccc(C2c3cc4c(cc3OC(N3CCCC3)C2C)OCO4)c1OC (configuration not stated) |  | > 100 | 16.8 | 15 | 34.5 | 16.6 | 21 |  | 7.51 | 14.3 | 18.8 | 19.6 |  |  |  |  |  |  | 
O=C1/C(=C/c2ccc(F)cc2)CNC/C1=C\c1ccc(F)cc1 | 18.3 | 6.71 | 3.18 |  |  | 2.52 | 4.06 | 13.2 | 3.3 | 7.51 | 1.45 | 5.67 |  |  |  |  |  |  | 
O=C(/C=C/c1cccs1)c1ccc(Cl)cc1 | > 100 | > 100 | > 100 | > 100 | > 100 | > 100 | > 100 | > 100 | > 100 |  | > 100 | > 100 |  |  |  |  |  |  | 
C=CCCCC12CCCc3cccc(c31)NC2=O (configuration not stated) |  | 42.4 | 86.4 |  | 31.3 | 33.8 |  | 30.2 | 87.6 |  |  |  |  |  |  |  |  |  | 
O=C1C(Cl)N(c2ccccc2)C1c1c[nH]c2ccccc12 (configuration not stated) | > 100 | > 100 |  |  | > 100 | > 100 | > 100 | > 100 | > 100 |  |  |  |  |  |  |  |  |  | 
CC(=O)Nc1ccc(Cl)c(Cl)c1 | > 100 | > 100 | > 100 |  | > 100 | > 100 | > 100 | > 100 | > 100 |  | > 100 |  |  |  |  |  |  |  | 
COc1ccc(NC2Oc3cc4c(cc3C(c3cc(OC)c(OC)c(OC)c3)C2C)OCO4)cc1 (configuration not stated) | > 100 | > 82.8 | > 38.5 |  | > 100 | > 100 | > 100 | > 100 | 22.1 | 0.565 | > 81.1 |  |  |  |  |  |  |  | 
CCOC(=O)C(=O)N1C(C)=C(C(=O)OCC)CC(C(=O)OCC)=C1C | > 100 | > 100 | > 100 |  | > 100 | > 100 |  | > 100 | > 100 | > 100 | > 100 | > 100 |  |  |  |  |  |  | 
